Assay results as given in patent US8101389B2, “Bacterial glutamine synthetases and methods of use” (Athenix Corp, priority 2006, dated 2012).

Experiments:
N[C@@H](CCC(=O)O)C(=O)O [1] = experiment: enzymatic assay, kinetics of AGS1m21; assay type: biochemical, Serratia marcescens; conditions: other: Table 4
Excerpt: (§1) ags1m21 (SEQ ID NO:41) encodes the AGS1m21 protein (SEQ ID NO:42). AGS1m21 is a variant of AGS1 that contains a similar amino acid change identified in other variants (V214M), as well as two novel mutations (N160S and G167R). This enzyme was expressed in E. coli, purified, and the kinetic values Km(glutamate) and Ki(glufosinate) of the variant measured by enzymatic assay.

ags1 mutant E. coli = experiment: Complementation of a glutamine synthase mutant; assay type: cell-based
Excerpt: Clones containing ags1m1 (pAX3421) and ags1m2 (pAX3422) were selected for further work.

[2] = test system: ags1 glutamine synthetase enzyme; experiment: Enzymatic activity of purified 6Xhis-tagged glutamine synthetases with and without glufosinate; assay type: biochemical, Serratia marcescens; conditions: for enzymatic activity compared with wild type AGS1: 5 minute assay, absence of glufosinate
Excerpt: (§2) ags1m1 (pAX3421) and ags1m2 (pAX3422) were subcloned into E. coli expression vector pRSF1B (Invitrogen) so as to create an N-terminus encoding a 6Xhis tag, purified and characterized kinetically.

E. coli cells [3] = experiment: Growth of E. coli transformants on M63 plates containing glufosinate; assay type: cell-based; conditions: 50 mM glyphosate (so in the source); versus the other variants except AGS1m16
E. coli cells [4] = experiment: as above; assay type: cell-based; conditions: for growth on glufosinate minimal M63+ agar media: 2, 10, 20, 50 and 100 mM glufosinate, DH5a E. coli cells
Method: To reconfirm that TKH2 and TKH3 confer resistance to 20 mM glufosinate, the purified plasmids were retransformed into DH5α cells. pUC18 was retransformed as a negative control. The transformation mixes were plated directly on M63 minimal plates with or without 20 mM glufosinate.
(§3) Mutants of the bacterial glutamine synthetase gene ags1 (SEQ ID NO:1) were created by error-prone mutagenesis using the GENEMORPH® Random Mutagenesis kit, and also using oligo-directed mutagenesis as known in the art. However, many methods are available for creating libraries of mutants. The resulting mutants were cloned into a pUC19 vector, electroporated into either XL-1 or DH5 alpha E. coli cells, and selected for growth on M63+ agar media containing antibiotic and 2, 10, or 20 mM glufosinate. Twenty-two clones were identified as growing on 20 mM glufosinate, and picked for further analysis.
(§4) ags1m2 was mutagenized by error-prone mutagenesis using GENEMORPH® II Random Mutagenesis kit (Stratagene) according to manufacturer's instructions. Mutagenized PCR product was digested with Sac I and Hind III, and ligated into a pUC vector, similarly digested with Sac I and Hind III. Ligations were transformed into E. coli cells, and plated onto M63+ plates containing antibiotic, and 125 mM glufosinate. Clones growing on 125 mM glufosinate plates were retested on 200 mM glufosinate plates, and compared to similar platings of ags1m1 and ags1m2. […] The DNA sequence of the ags open reading frame in pAX3439 was sequenced, and the gene designated as ags1m16. The DNA sequence of ags1m16 is represented herein as SEQ ID NO:31, and the amino acid sequence is represented herein as SEQ ID NO:32. AGS1m16 differs from AGS1m2 at a single amino acid at position H212 of the protein, which is modified from Histidine (‘H’) to Asparagine (‘N’), and contains a total of five amino acid changes relative to the wild-type AGS1 (see FIG. 1 and Table 3).
Clones expressing AGS1m17, AGS1m18, AGS1m19, or AGS1m20 were all found to be able to grow on plates containing 375 mM glufosinate, whereas no growth of clones expressing AGS1m16 was observed on plates containing 375 mM glufosinate.

N[C@@H](CCC(=O)O)C(=O)O [5] = experiment: enzymatic assay, kinetics of AGS1(AD-); assay type: biochemical, Serratia marcescens; conditions: other: Table 5
Method: ags1(ad-) (SEQ ID NO:43) encoding the AGS1(AD-) protein (SEQ ID NO:44), is a variant of ags1 in which the putative adenylylation site has been removed by mutating the tyrosine at position 398 of AGS1 to a phenylalanine by site directed mutagenesis.
(§5) The unmodified enzyme (AGS1) was compared to AGS1(AD-) and AGS1m17(AD-) by carrying out enzymatic assays on both enzymes following purification from E. coli. A glutamine synthetase enzyme from E. coli (GlnA) was also tested.

N[C@@H](CCC(=O)O)C(=O)O [6] = experiment: enzymatic assay, kinetics of AGS1m17(AD-); assay type: biochemical, Serratia marcescens; conditions: other: Table 5
Method: ags1m17(ad-) (SEQ ID NO:45) encoding the AGS1m17(AD-) protein (SEQ ID NO:46), is a variant of ags1m17 in which the putative adenylylation site has been removed by mutating the tyrosine at position 398 of AGS1 to a phenylalanine by site directed mutagenesis.
as §5

[7] = test system: E. coli cells with AGS1 variant AGS1m2 (pAX3422), F81S, P185S, G218S, I303N, SEQ ID NO:6; experiment: growth of E. coli on herbicide plates, ags1m2; assay type: cell-based; conditions: 50 mM glyphosate; than the other variants, except AGS1m16
Method: as §3
as §4, with “AGS1m16 differs from AGS1m2 at a single amino acid at position H212 of the protein, which is modified from Histidine (‘H’) to Asparagine (‘N’), and contains a total of five amino acid changes relative to the wild-type AGS1 (see FIG. 1 and Table 3).” left out

[8] = test system: E. coli cells with AGS1 variant AGS1m4 (pAX3428), A151T, V214M, S276Y, SEQ ID NO:10; experiment: growth of E. coli on herbicide plates, ags1m4; assay type: cell-based; conditions: than the other variants, except AGS1m16
Excerpt: Mutants of the bacterial glutamine synthetase gene ags1 (SEQ ID NO:1) were created by error-prone mutagenesis using the GENEMORPH® Random Mutagenesis kit, and also using oligo-directed mutagenesis as known in the art. However, many methods are available for creating libraries of mutants. […]

[9] = test system: pea leaf glutamine synthetase; conditions: Leason et al. (1982); cited from earlier work
N[C@@H](CCC(=O)O)C(=O)O [10] = experiment: enzymatic assay, kinetics of wild-type AGS1; assay type: biochemical, Serratia marcescens; conditions: other: Table 4
Excerpt: as §2, §1, §5

maize = experiment: Leaf protein content of T0 transgenic maize plants (Bradford assay); assay type: in vivo
Excerpt: synags1m16 (SEQ ID NO:47) is an alternate DNA sequence that encodes the AGS1m16 protein (SEQ ID NO:32). synags1m16 was cloned into a shuttle vector to guide overexpression of AGS1m16 in maize. The vector places overexpression of synags1m16 under the control of the Trp5 promoter (U.S. application Ser. No. 11/377,318, filed Mar. 16, 2006 and herein incorporated by reference in its entirety).
Nine transgenic maize plants containing ags1m16 were generated. Protein expression of the AGS1m16 protein was confirmed by Western blot for each of these events.
Nitrogen use efficiency was evaluated for these events by determining the protein content of leaf samples isolated from the T0 plants after four weeks of growth in the greenhouse.
The protein in leaf samples was quantified as follows: Fifty milligrams of leaf material (fresh weight, no midrib) were freeze-dried for dry weight determination. The dehydrated leaf tissue was then ground in the presence of fresh Milli Q water using a MiniBeadbeater-96™ and 2.3 mm stainless-steel beads. The ground leaf tissue was filtered through a 0.45 μm Polyvinylidene Fluoride (PVDF) filter. Bio-Rad Protein Dye was added to leaf samples diluted in water, and a Bradford protein assay was performed and read in the spectrophotometer at 595 nm vs. internal protein standards included in the assay. […]

Serratia marcescens glutamine synthetase AGS1 variant AGS1m21, N160S, G167R, V214M, SEQ ID NO:42 (Serratia marcescens; G167R/N160S/V214M)
Km (N[C@@H](CCC(=O)O)C(=O)O [1]): 12.0 mM

ags1m2: ags1 variant F81S, P185S, G218S, I303N; SEQ ID NO:5/6
complementation of ags1 mutant E. coli (ags1 mutant E. coli): complement ags1 mutant E. coli
enzymatic activity compared with wild type AGS1 [2]: relatively little enzymatic activity
enzymatic reaction overnight ([2]; overnight): appeared to go to completion overnight
speed of colony growth on 50 mM glyphosate (E. coli cells [3]): grow more quickly

ags1m14: ags1 variant V150M, D166N, V214M, G289S, A420V; SEQ ID NO:27/28
growth on glufosinate minimal M63+ agar media (E. coli cells [4]): grow on 2, 10, 20, 50, and 100 mM glufosinate

ags1m1: glufosinate resistant ags1 variant V39I, V214M; SEQ ID NO:3/4
growth on glufosinate minimal M63+ agar media (E. coli cells [4]): grow on 2, 10, 20, 50, and 100 mM glufosinate
complementation of ags1 mutant E. coli (ags1 mutant E. coli): complement ags1 mutant E. coli
growth rate in complementation of ags1 mutant E. coli (ags1 mutant E. coli; comparison of ags1m1 with ags1m2): growing at a faster rate than ags1m2
enzymatic activity compared with wild type AGS1 [2]: indistinguishable from wild type enzyme

Serratia marcescens glutamine synthetase AGS1 variant AGS1(AD-), tyrosine 398 to phenylalanine, SEQ ID NO:44 (Serratia marcescens; Y398F)
Km (N[C@@H](CCC(=O)O)C(=O)O [5]): 3.4 mM

ags1m7: ags1 variant G168C, V214M, K395R; SEQ ID NO:13/14
growth on glufosinate minimal M63+ agar media (E. coli cells [4]): grow on 2, 10, 20, 50, and 100 mM glufosinate

Serratia marcescens glutamine synthetase AGS1 variant AGS1m17(AD-), F81S, P185S, H212T, V214A, G218S, I303N plus tyrosine 398 to phenylalanine, SEQ ID NO:46 (Serratia marcescens; F81S/G218S/H212T/I303N/P185S/V214A/Y398F)
Km (N[C@@H](CCC(=O)O)C(=O)O [6]): 14.1 mM

O=C(O)CNCP(=O)(O)O [glyphosate]
colony growth on 50 mM glyphosate versus other variants [7]: grow more quickly
colony growth on 50 mM glyphosate versus other variants [8]: grow more quickly

ags1m12: ags1 variant V207I, V214M; SEQ ID NO:23/24
growth on glufosinate minimal M63+ agar media (E. coli cells [4]): grow on 2, 10, 20, 50, and 100 mM glufosinate

CS(=N)(=O)CCC(N)C(=O)O (stereo not drawn) [Methione sulfoximine (MSO), Methione sulfoximine]
inhibition of pea leaf glutamine synthetase [9]: mixed competitive inhibitor

ags1m4: ags1 variant A151T, V214M, S276Y; SEQ ID NO:9/10
speed of colony growth on 50 mM glyphosate (E. coli cells [3]): grow more quickly

Serratia marcescens ATX 20345 glutamine synthetase AGS1, wild type, SEQ ID NO:2 (Serratia marcescens)
Km (N[C@@H](CCC(=O)O)C(=O)O [10]): 3.4 mM
Vmax (N[C@@H](CCC(=O)O)C(=O)O [10]): 0.10 nmol/min/µg
kcat (N[C@@H](CCC(=O)O)C(=O)O [10]): 0.08 s⁻¹

ags1m11: ags1 variant G56A, V214E; SEQ ID NO:21/22
growth on glufosinate minimal M63+ agar media (E. coli cells [4]): grow on 2, 10, 20, 50, and 100 mM glufosinate
speed of colony growth on 50 mM glyphosate (E. coli cells [3]): grow more quickly

ags1m16: ags1 variant F81S, P185S, H212N, G218S, I303N; SEQ ID NO:31/32
resistance conferred upon E. coli, compared among variants (E. coli cells [4]): most resistance
growth on 200 mM glufosinate plates (E. coli cells [4]; M63+ plates, 200 mM glufosinate): ability to grow on 200 mM glufosinate plates
Total protein, Avg. (maize; average of nine ags1m16 events): 16.8 mg/g dry
higher protein content than the control plants (maize; average, versus control plants without ags1m16): 24%
